Patent US6747023B1 (Daiichi Pharmaceutical Co., Ltd., priority 1998, dated 2004)
Where a name gives a salt, the structure may show the parent alone. Read-outs that look alike come from different tables or passages of the source.

How the values were obtained:
human FXa = target: T1, human FXa (Homo sapiens, UniProt P00742); assay: Measurement of FXa inhibitory action (IC50); type: biochemical
T1 construct: purchased Cosmobio-ERL HFXa-1011
Procedure: Measurement of FXa Inhibitory Action (IC50)
From the below-described equation, an inhibitory ratio % of each sample was determined.
(§1) Inhibitory ratio (%)=(1−OD of sample÷OD of control)×100

human thrombin = target: T2, human thrombin (Homo sapiens, UniProt P00734); assay: Measurement of thrombin inhibitory action (IC50); type: biochemical
T2 construct: carries out limited proteolysis of prothrombin, thereby forming thrombin; purchased Sigma Chemical
Procedure: Measurement of Thrombin Inhibitory Action (IC50)
In a 96-well microtiter plate, 10 μl of a sample solution, 40 μl of a 100 mM tris.200 mM sodium chloride 0.2% BSA (pH: 7.4) buffer and 10 μl of 4 U/ml human thrombin (Sigma Chemical, dissolved in and diluted with a measuring buffer) were poured in portions, followed by the addition of 40 μl of 500 μM S2266 (product of Chromogenix). An increase (mOD/min) in the absorbance at 405 nm was measured at room temperature. From the below-described equation, an inhibitory ratio % of each sample was determined. On a logarithmic probability paper, the final concentration of the sample and inhibitory ratio % were plotted along the abscissa and the ordinate, respectively, whereby a 50% inhibitory concentration (IC50) was found.
as §1

human Factor Xa = human Factor Xa (Homo sapiens, UniProt P00742); assay: Test of oral administration: anti-FXa activity in the plasma; type: in vivo, Wistar male rat; details: rat, one hour after the oral administration of 30 mg/kg
Procedure: (§2) A sample was dissolved or suspended in a 0.5% (w/v) methyl cellulose solution and the resulting solution or suspension was orally administered (10 ml/kg) to a 8 to 11 week-old rat (Wistar male rat (Nippon SLC Co., Ltd.)) which had been fasted overnight. After administration of the sample, the blood to which 1/10 part by weight of 3.13% (w/v) sodium citrate had been added was collected from the cervical vein under anesthesia with halothane. The rat was awakened except during the blood collection. Feeding was re-started 6 hours after the blood collection. From each blood sample, the plasma was separated by centrifugal separation and anti-FXa activity in the blood and prothrombin time extending action were measured.
In a 96-well plate, 5 μl of the plasma was poured in portions, followed by the addition of 55 μl of a 8:1:2 mixture of 100 mM tris.200 mM sodium chloride.0.2% BSA (pH 7.4) buffer, water and 0.1 U/ml human Factor Xa solution (dissolved in and diluted with a measuring buffer) and 40 μl of 750 μM S-2222. After stirring for 10 seconds in a plate mixer, an increase (mOD/min) of the absorbance at 405 nm was measured at room temperature. The inhibitory ratio was calculated as follows:
An inhibitory ratio (%)=(1−OD of sample÷OD of control on average relative to blood-collecting time of sample)×100

[1] = test system: prothrombin time of the plasma; assay: Test of oral administration: coagulation extending action (prothrombin time); type: in vivo, Wistar male rat; details: rat, oral administration of 30 mg/kg
Procedure: as §2
To 20 μl of the plasma, 40 μl of cynplastin (Organon Teknika/USA) was added and the coagulation time was measured. The ratio of the prothrombin time after the administration of the sample relative to the prothrombin time before the administration of the sample was designated as an index of the coagulation extending action.

[2] = test system: tissue thromboplastin-derived DIC; assay: Anti-thrombus effects in a tissue thromboplastin-derived rat DIC model; type: in vivo; details: oral 30 mg/kg, tissue thromboplastin one hour after the sample
Procedure: A rat was anesthetized with halothane. After the collection of the blood (for measurement of the number of platelets, anti-FXa activity and TAT) from its cervical vein by using 1/10 part by weight of 3.13% (w/v) sodium citrate, the sample was administered orally. At an appropriate time after the administration, the rat was intraperitoneally anesthetized ([…]) with Nembutal (50 mg/ml pentobarbital sodium, Abott Laboratories), followed by intravenous drip of 0.2 U/ml of tissue thromboplastin (Thromboplastin C plus, Dade Diagnostics of P. R. Inc.,) from the femoral vein for one minute at a rate of 2.5 to 3.0 ml/kg/min. The blood was collected (for measuring the number of platelets and anti-FXa activity) from the cervical vein 10 minutes after the intravenous drip and the blood was collected (for measuring TAT) from the cervical vein 20 minutes after the blood collection. The number of platelets, anti-FXa activity in the plasma and TAT concentration of each blood sample were measured. The number of the platelets was measured by an automatic cytometer, while the anti-FXa activity in the plasma was measured in a similar manner to that described in Test 4.
For the measurement of TAT (Thrombin-anti Thrombin=complex), EnzygnostR TAT micro kit (Boering Verke) was employed.

[3] = 0.05 U/ml human FXa, substrate S2222, absorbance at 405 nm, room temperature, read-out: Concentration (nM) of the sample at which 50% of Fxa activity is inhibited
[4] = 4 U/ml human thrombin, substrate S2266, absorbance at 405 nm, room temperature, read-out: Concentration (nM) of the sample at which 50% of thrombin activity is inhibited

T1 sequence (P00742 235-488 limits assumed): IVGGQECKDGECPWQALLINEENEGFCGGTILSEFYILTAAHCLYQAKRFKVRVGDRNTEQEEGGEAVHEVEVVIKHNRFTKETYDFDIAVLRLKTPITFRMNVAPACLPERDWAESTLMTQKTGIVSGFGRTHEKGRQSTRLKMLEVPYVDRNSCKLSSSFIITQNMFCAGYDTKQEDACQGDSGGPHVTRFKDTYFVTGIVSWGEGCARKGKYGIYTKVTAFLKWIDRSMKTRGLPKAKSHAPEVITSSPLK
T1 sequence (P00742 41-179 partner limits assumed): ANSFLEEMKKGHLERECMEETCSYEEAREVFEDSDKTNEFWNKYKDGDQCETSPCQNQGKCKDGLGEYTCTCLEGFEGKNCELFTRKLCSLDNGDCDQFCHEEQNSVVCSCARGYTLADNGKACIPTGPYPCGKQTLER
human Factor Xa, sequence (P00742 235-488 limits assumed): as the sequence (P00742 235-488 limits assumed) above
human Factor Xa, sequence (P00742 41-179 partner limits assumed): as the sequence (P00742 41-179 partner limits assumed) above

SMILES | IC50 (human FXa; [3]) | IC50 (human thrombin; [4]) | further results
CN1Cc2ccc(C(=O)N3CCN(S(=O)(=O)c4cc5cc(Cl)ccc5[nH]4)CC3)cc2C1 (as salt: salt) [Example B-190, 1-[(5-Chloroindol-2-yl)sulfonyl]-4-[(2-methylisoindolin-5-yl)carbonyl]piperazine] |  |  | melting point: 175 to 180 °C (dec.)
CN1CCc2nc(C(=O)N3CCN(S(=O)(=O)c4cc5cc(Cl)ccc5[nH]4)CC3)sc2C1 [Example B-54, hydrochloride] |  |  | IC50 (human FXa; same test as Tables 1-6, read-out: FXa 50% inhibitory concentrations): 5 nM; IC50 (human thrombin; same test as Tables 7-8, read-out: thrombin 50% inhibitory concentration): 1050 nM
CC1Cc2nc(C(=O)N3CCN(S(=O)(=O)c4ccc5cc(Cl)ccc5c4)CC3C(N)=O)sc2CN1.Cl (centres unmarked) [Example B-36, 2-Carbamoyl-4-[(6-chloronaphthalen-2-yl)sulfonyl]-1-[(6-methyl-4,5,6,7-tetrahydrothiazolo[5,4-c]pyridin-2-yl)carbonyl]piperazine hydrochloride] |  |  | anti-FXa activity in the plasma (human Factor Xa): 68%; thrombin time (result in words) [1]: extended the thrombin time; anti-FXa action in the plasma (result in words) [2]: apparent anti-FXa action in the plasma was recognized; decrease in the number of the platelets [2]: suppressed; increase in the TAT concentration [2]: suppressed
Cl.O=C(C1CC=C(c2ccncc2)CC1)N1CCN(S(=O)(=O)c2ccc3cc(Cl)ccc3c2)CC1 (racemic) [Example A-60, 1-[(6-Chloronaphthalen-2-yl)sulfonyl]-4-[[(1RS)-4-(pyridin-4-yl)-3-cyclohexene]carbonyl]piperazine hydrochloride] |  |  | anti-FXa activity in the plasma (human Factor Xa): 70%; extension of the prothrombin time (ratio after/before administration) [1]: 1.18 times
O=C(c1cnc(-c2ccncc2)cn1)N1CCN(S(=O)(=O)c2cc3cc(Cl)ccc3[nH]2)CC1 [Example A-138, 1-[(5-Chloroindol-2-yl)sulfonyl]-4-[[5-(pyridin-4-yl)pyrazin-2-yl]carbonyl]piperazine] | 5 nM | 5900 nM | 
O=C(c1ccc2c(c1)CNC2)N1CCN(S(=O)(=O)c2cc3cc(Cl)ccc3[nH]2)CC1 [Example B-189, 1-[(5-Chloroindol-2-yl)sulfonyl]-4-[(isoindolin-5-yl)carbonyl]piperazine] |  |  | melting point: 196 to 199 °C (dec.)
O=C(c1ncc(-c2ccncc2)cn1)N1CCN(S(=O)(=O)c2cc3ccc(Cl)cc3s2)CC1 [Example A-132, 1-[(6-Chlorobenzothiophen-2-yl)sulfonyl]-4-[[5-(pyridin-4-yl)pyrimidin-2-yl]carbonyl]piperazine] | 5.6 nM | > 100000 nM | 
O=C(c1ccc(-c2cccc[n+]2[O-])cc1)N1CCN(S(=O)(=O)c2cc3ccc(Cl)cc3s2)CC1 [Example A-117, 2-[4-[[4-[(6-Chlorobenzo[b]thien-2-yl)sulfonyl]piperazin-1-yl]carbonyl]phenyl]pyridine N-oxide] | 10.5 nM | 4100 nM | 
O=C(c1ccc(-c2cccc[n+]2[O-])cc1)N1CCN(S(=O)(=O)c2cc3cc(Cl)ccc3[nH]2)CC1 [Example A-109, 2-[4-[[4-[(5-Chloroindol-2-yl)sulfonyl]piperazin-1-yl]carbonyl]phenyl]pyridine N-oxide] | 6.9 nM | 1550 nM | 
O=C(c1cnc(-c2ccncc2)cn1)N1CCN(S(=O)(=O)c2ccc3cc(Cl)ccc3c2)CC1 [Example A-137, 1-[(6-Chloronaphthalen-2-yl)sulfonyl]-4-[[5-(pyridin-4-yl)pyrazin-2-yl]carbonyl]piperazine] | 60 nM | 4100 nM | 
O=C(c1cnc(-c2cc[n+]([O-])cc2)cn1)N1CCN(S(=O)(=O)c2cc3cc(Cl)ccc3[nH]2)CC1 [Example A-140, 4-[5-[[4-[(5-Chloroindol-2-yl)sulfonyl]piperazin-1-yl]carbonyl]pyrazin-2-yl]pyridine N-oxide] | 6.8 nM | 1370 nM | 
O=C(c1ncc(-c2cc[n+]([O-])cc2)cn1)N1CCN(S(=O)(=O)c2cc3cc(Cl)ccc3[nH]2)CC1 [Example A-134, 4-[2-[[4-[(5-Chloroindol-2-yl)sulfonyl]piperazin-1-yl]carbonyl]pyrimidin-5-yl]pyridine N-oxide] | 4.6 nM | 10200 nM | 
C#Cc1ccc2cc(S(=O)(=O)N3CCN(C(=O)c4ncc(-c5ccncc5)cn4)CC3)sc2c1 [Example A-216, 4-[[5-(Pyridin-4-yl)pyrimidin-2-yl]carbonyl]-1-[(6-ethynylbenzo[b]thien-2-yl)sulfonyl]piperazine] | 15 nM | > 50000 nM | 
C#Cc1ccc2[nH]c(S(=O)(=O)N3CCN(C(=O)c4ccc(-c5ccncc5)cc4)CC3)cc2c1 [Example A-103, 1-[(5-Ethynylindol-2-yl)sulfonyl]-4-[4-(pyridin-4-yl)benzoyl]piperazine] | 27 nM | 2220 nM | 
O=C(c1ccc(-c2ccncc2)cc1)N1CCN(S(=O)(=O)c2cc3cc(Cl)ccc3s2)CC1 [Example A-96, 1-[(5-Chlorobenzo[b]thien-2-yl)sulfonyl]-4-[4-(pyridin-4-yl)benzoyl]piperazine hydrochloride] | 450 nM |  | 
O=C(c1ncc(-c2cc[n+]([O-])cc2)cn1)N1CCN(S(=O)(=O)c2cc3ccc(Cl)cc3s2)CC1 [Example A-133, 4-[2-[[4-[(6-Chlorobenzo[b]thien-2-yl)sulfonyl]piperazin-1-yl]carbonyl]pyrimidin-5-yl]pyridine N-oxide] | 10 nM | 7700 nM | 
O=C(c1ncc(-c2ccncc2)cn1)N1CCN(S(=O)(=O)c2ccc3cc(Cl)ccc3c2)CC1 [Example A-123, 1-[(6-Chloronaphthalen-2-yl)sulfonyl]-4-[[5-(pyridin-4-yl)pyrimidin-2-yl]carbonyl]piperazine] | 23 nM | 16000 nM | 
NCc1cc(-c2ccc(C(=O)N3CCN(S(=O)(=O)c4ccc5cc(Cl)ccc5c4)CC3)cc2)ccn1 [Example A-155, 1-[4-(2-Aminomethylpyridin-4-yl)benzoyl]-4-[(6-chloronaphthalen-2-yl)sulfonyl]piperazine hydrochloride] | 28 nM |  | 
O=C(c1ncc(-c2ccncc2)cn1)N1CCN(S(=O)(=O)c2cc3cc(Cl)ccc3[nH]2)CC1 [Example A-105, 1-[(5-Chloroindol-2-yl)sulfonyl]-4-[[5-(pyridin-4-yl)pyrimidin-2-yl]carbonyl]piperazine] |  | 19000 nM | 
O=C(c1ccc(-c2ccnc(CO)c2)cc1)N1CCN(S(=O)(=O)c2ccc3cc(Cl)ccc3c2)CC1 [Example A-152, 1-[(6-Chloronaphthalen-2-yl)sulfonyl]-4-[4-(2-hydroxymethylpyridin-4-yl)benzoyl]piperazine] | 38 nM |  | 
C#Cc1ccc2[nH]c(S(=O)(=O)N3CCN(C(=O)c4ncc(-c5cc[n+]([O-])cc5)s4)CC3)cc2c1 [Example A-231, 4-[2-[[4-[(5-Ethynylindol-2-yl)sulfonyl]piperazin-1-yl]carbonyl]thiazol-5-yl]pyridine N-oxide] | 2.3 nM |  | 
